Assay results reported in the NIST ThermoML archive (doi:10.1016/j.fluid.2015.03.016).
Values joined by “and” are separate entries in the source; they are usually repeats but may differ in a detail not shown here. Equal values may be shown once.

Settings: Liquid

CCCCOC(=O)CCCCC(=O)OCCCC [dibutyl hexanedioate]
Settings	viscosity
303.14 K, 1250 kPa, Vibrating wire viscometry	4.201 mPa·s
303.14 K, 1280 kPa, Vibrating wire viscometry	4.21 mPa·s
303.14 K, 2750 kPa, Vibrating wire viscometry	4.305 mPa·s
303.14 K, 2760 kPa, Vibrating wire viscometry	4.313 mPa·s
303.14 K, 2770 kPa, Vibrating wire viscometry	4.312 mPa·s
303.14 K, 5400 kPa, Vibrating wire viscometry	4.417 mPa·s
303.14 K, 5420 kPa, Vibrating wire viscometry	4.417 mPa·s and 4.419 mPa·s and 4.413 mPa·s
303.14 K, 7530 kPa, Vibrating wire viscometry	4.511 mPa·s
303.14 K, 7570 kPa, Vibrating wire viscometry	4.513 mPa·s
303.14 K, 7660 kPa, Vibrating wire viscometry	4.532 mPa·s
303.14 K, 10500 kPa, Vibrating wire viscometry	4.68 mPa·s
303.14 K, 10520 kPa, Vibrating wire viscometry	4.686 mPa·s
303.14 K, 10570 kPa, Vibrating wire viscometry	4.683 mPa·s
303.14 K, 20260 kPa, Vibrating wire viscometry	5.251 mPa·s
303.14 K, 20300 kPa, Vibrating wire viscometry	5.25 mPa·s
303.14 K, 20320 kPa, Vibrating wire viscometry	5.249 mPa·s
303.14 K, 65590 kPa, Vibrating wire viscometry	8.312 mPa·s
303.15 K, 1220 kPa, Vibrating wire viscometry	4.205 mPa·s
303.15 K, 1280 kPa, Vibrating wire viscometry	4.208 mPa·s
303.15 K, 1290 kPa, Vibrating wire viscometry	4.21 mPa·s
303.15 K, 1300 kPa, Vibrating wire viscometry	4.211 mPa·s
303.15 K, 2770 kPa, Vibrating wire viscometry	4.312 mPa·s
303.15 K, 5420 kPa, Vibrating wire viscometry	4.415 mPa·s and 4.419 mPa·s
303.15 K, 7660 kPa, Vibrating wire viscometry	4.531 mPa·s and 4.537 mPa·s
303.15 K, 7680 kPa, Vibrating wire viscometry	4.531 mPa·s and 4.533 mPa·s and 4.537 mPa·s
303.15 K, 7730 kPa, Vibrating wire viscometry	4.518 mPa·s
303.15 K, 10560 kPa, Vibrating wire viscometry	4.689 mPa·s
303.15 K, 15380 kPa, Vibrating wire viscometry	4.954 mPa·s
303.15 K, 15390 kPa, Vibrating wire viscometry	4.955 mPa·s and 4.963 mPa·s and 4.951 mPa·s
303.15 K, 30100 kPa, Vibrating wire viscometry	5.839 mPa·s
303.15 K, 30180 kPa, Vibrating wire viscometry	5.821 mPa·s
303.15 K, 30250 kPa, Vibrating wire viscometry	5.828 mPa·s
303.15 K, 30290 kPa, Vibrating wire viscometry	5.827 mPa·s
303.15 K, 30330 kPa, Vibrating wire viscometry	5.817 mPa·s
303.15 K, 30380 kPa, Vibrating wire viscometry	5.827 mPa·s
303.15 K, 39970 kPa, Vibrating wire viscometry	6.452 mPa·s
303.15 K, 40060 kPa, Vibrating wire viscometry	6.443 mPa·s
303.15 K, 40100 kPa, Vibrating wire viscometry	6.443 mPa·s
303.15 K, 40150 kPa, Vibrating wire viscometry	6.446 mPa·s
303.15 K, 49790 kPa, Vibrating wire viscometry	7.073 mPa·s
303.15 K, 49810 kPa, Vibrating wire viscometry	7.073 mPa·s
303.15 K, 49830 kPa, Vibrating wire viscometry	7.07 mPa·s
303.15 K, 49880 kPa, Vibrating wire viscometry	7.058 mPa·s
303.15 K, 65340 kPa, Vibrating wire viscometry	8.283 mPa·s
303.15 K, 65490 kPa, Vibrating wire viscometry	8.277 mPa·s
313.14 K, 1070 kPa, Vibrating wire viscometry	3.362 mPa·s
313.14 K, 1090 kPa, Vibrating wire viscometry	3.364 mPa·s
313.14 K, 1110 kPa, Vibrating wire viscometry	3.371 mPa·s
313.14 K, 1160 kPa, Vibrating wire viscometry	3.369 mPa·s
313.14 K, 2580 kPa, Vibrating wire viscometry	3.416 mPa·s
313.14 K, 2590 kPa, Vibrating wire viscometry	3.412 mPa·s and 3.414 mPa·s
313.14 K, 2600 kPa, Vibrating wire viscometry	3.415 mPa·s
313.14 K, 2610 kPa, Vibrating wire viscometry	3.416 mPa·s
313.14 K, 5050 kPa, Vibrating wire viscometry	3.518 mPa·s
313.14 K, 5060 kPa, Vibrating wire viscometry	3.518 mPa·s
313.14 K, 7630 kPa, Vibrating wire viscometry	3.595 mPa·s
313.14 K, 10470 kPa, Vibrating wire viscometry	3.713 mPa·s
313.14 K, 15150 kPa, Vibrating wire viscometry	3.89 mPa·s and 3.889 mPa·s
313.14 K, 15210 kPa, Vibrating wire viscometry	3.888 mPa·s
313.14 K, 20300 kPa, Vibrating wire viscometry	4.123 mPa·s
313.14 K, 20430 kPa, Vibrating wire viscometry	4.12 mPa·s
313.14 K, 20440 kPa, Vibrating wire viscometry	4.123 mPa·s
313.14 K, 30160 kPa, Vibrating wire viscometry	4.553 mPa·s
313.14 K, 30180 kPa, Vibrating wire viscometry	4.556 mPa·s and 4.554 mPa·s
313.14 K, 30190 kPa, Vibrating wire viscometry	4.556 mPa·s
313.14 K, 40210 kPa, Vibrating wire viscometry	5.026 mPa·s
313.14 K, 40270 kPa, Vibrating wire viscometry	5.022 mPa·s
313.14 K, 40290 kPa, Vibrating wire viscometry	5.03 mPa·s
313.14 K, 40330 kPa, Vibrating wire viscometry	5.028 mPa·s
313.14 K, 50580 kPa, Vibrating wire viscometry	5.596 mPa·s
313.14 K, 50590 kPa, Vibrating wire viscometry	5.598 mPa·s
313.14 K, 50610 kPa, Vibrating wire viscometry	5.595 mPa·s and 5.596 mPa·s and 5.591 mPa·s
313.14 K, 50640 kPa, Vibrating wire viscometry	5.591 mPa·s
313.14 K, 65090 kPa, Vibrating wire viscometry	6.358 mPa·s
313.14 K, 65110 kPa, Vibrating wire viscometry	6.365 mPa·s
313.15 K, 5050 kPa, Vibrating wire viscometry	3.522 mPa·s and 3.516 mPa·s
313.15 K, 5310 kPa, Vibrating wire viscometry	3.531 mPa·s
313.15 K, 5320 kPa, Vibrating wire viscometry	3.531 mPa·s
313.15 K, 5340 kPa, Vibrating wire viscometry	3.529 mPa·s
313.15 K, 5350 kPa, Vibrating wire viscometry	3.534 mPa·s
313.15 K, 5370 kPa, Vibrating wire viscometry	3.531 mPa·s
313.15 K, 5380 kPa, Vibrating wire viscometry	3.532 mPa·s
313.15 K, 7570 kPa, Vibrating wire viscometry	3.59 mPa·s
313.15 K, 7580 kPa, Vibrating wire viscometry	3.595 mPa·s
313.15 K, 7610 kPa, Vibrating wire viscometry	3.598 mPa·s
313.15 K, 10450 kPa, Vibrating wire viscometry	3.717 mPa·s
313.15 K, 10470 kPa, Vibrating wire viscometry	3.712 mPa·s
313.15 K, 10500 kPa, Vibrating wire viscometry	3.714 mPa·s
313.15 K, 15160 kPa, Vibrating wire viscometry	3.887 mPa·s and 3.889 mPa·s
313.15 K, 15180 kPa, Vibrating wire viscometry	3.891 mPa·s
313.15 K, 20420 kPa, Vibrating wire viscometry	4.122 mPa·s
313.15 K, 30150 kPa, Vibrating wire viscometry	4.56 mPa·s
313.15 K, 30200 kPa, Vibrating wire viscometry	4.555 mPa·s
323.11 K, 101.33 kPa, Capillary tube (Ostwald / Ubbelohde) method	2.704 mPa·s
323.14 K, 1140 kPa, Vibrating wire viscometry	2.727 mPa·s and 2.723 mPa·s
323.14 K, 5040 kPa, Vibrating wire viscometry	2.856 mPa·s
323.14 K, 10170 kPa, Vibrating wire viscometry	3.018 mPa·s
323.14 K, 30230 kPa, Vibrating wire viscometry	3.694 mPa·s and 3.693 mPa·s
323.14 K, 39990 kPa, Vibrating wire viscometry	4.08 mPa·s
323.14 K, 40050 kPa, Vibrating wire viscometry	4.079 mPa·s
323.15 K, 1130 kPa, Vibrating wire viscometry	2.728 mPa·s and 2.722 mPa·s
323.15 K, 2630 kPa, Vibrating wire viscometry	2.775 mPa·s
323.15 K, 2640 kPa, Vibrating wire viscometry	2.778 mPa·s
323.15 K, 2650 kPa, Vibrating wire viscometry	2.776 mPa·s and 2.775 mPa·s
323.15 K, 5040 kPa, Vibrating wire viscometry	2.856 mPa·s
323.15 K, 5070 kPa, Vibrating wire viscometry	2.86 mPa·s
323.15 K, 5100 kPa, Vibrating wire viscometry	2.863 mPa·s
323.15 K, 5170 kPa, Vibrating wire viscometry	2.846 mPa·s
323.15 K, 5180 kPa, Vibrating wire viscometry	2.841 mPa·s
323.15 K, 5190 kPa, Vibrating wire viscometry	2.843 mPa·s
323.15 K, 7740 kPa, Vibrating wire viscometry	2.926 mPa·s and 2.931 mPa·s
323.15 K, 7750 kPa, Vibrating wire viscometry	2.924 mPa·s
323.15 K, 7760 kPa, Vibrating wire viscometry	2.926 mPa·s and 2.931 mPa·s
323.15 K, 10130 kPa, Vibrating wire viscometry	3.018 mPa·s
323.15 K, 10140 kPa, Vibrating wire viscometry	3.02 mPa·s
323.15 K, 10150 kPa, Vibrating wire viscometry	3.02 mPa·s and 3.016 mPa·s
323.15 K, 15220 kPa, Vibrating wire viscometry	3.172 mPa·s and 3.173 mPa·s and 3.174 mPa·s
323.15 K, 15230 kPa, Vibrating wire viscometry	3.175 mPa·s and 3.171 mPa·s
323.15 K, 20200 kPa, Vibrating wire viscometry	3.331 mPa·s
323.15 K, 20230 kPa, Vibrating wire viscometry	3.327 mPa·s and 3.335 mPa·s
323.15 K, 20250 kPa, Vibrating wire viscometry	3.33 mPa·s
323.15 K, 20270 kPa, Vibrating wire viscometry	3.334 mPa·s
323.15 K, 30190 kPa, Vibrating wire viscometry	3.693 mPa·s
323.15 K, 30220 kPa, Vibrating wire viscometry	3.689 mPa·s
323.15 K, 40130 kPa, Vibrating wire viscometry	4.073 mPa·s
323.15 K, 40140 kPa, Vibrating wire viscometry	4.077 mPa·s
323.15 K, 50030 kPa, Vibrating wire viscometry	4.456 mPa·s
323.15 K, 50050 kPa, Vibrating wire viscometry	4.45 mPa·s
323.15 K, 50060 kPa, Vibrating wire viscometry	4.457 mPa·s
323.16 K, 5190 kPa, Vibrating wire viscometry	2.849 mPa·s
323.16 K, 65110 kPa, Vibrating wire viscometry	5.126 mPa·s
323.16 K, 65190 kPa, Vibrating wire viscometry	5.123 mPa·s
323.16 K, 65230 kPa, Vibrating wire viscometry	5.125 mPa·s
323.16 K, 65310 kPa, Vibrating wire viscometry	5.119 mPa·s
333.03 K, 101.33 kPa, Capillary tube (Ostwald / Ubbelohde) method	2.25 mPa·s
333.15 K, 1000 kPa, Vibrating wire viscometry	2.27 mPa·s
333.15 K, 1020 kPa, Vibrating wire viscometry	2.27 mPa·s
333.15 K, 1170 kPa, Vibrating wire viscometry	2.269 mPa·s
333.15 K, 1200 kPa, Vibrating wire viscometry	2.268 mPa·s
333.15 K, 2530 kPa, Vibrating wire viscometry	2.296 mPa·s
333.15 K, 5030 kPa, Vibrating wire viscometry	2.367 mPa·s
333.15 K, 5050 kPa, Vibrating wire viscometry	2.362 mPa·s
333.15 K, 5070 kPa, Vibrating wire viscometry	2.365 mPa·s
